The record followed here is US20010033827A1, “Inhibition of mucin release from airway goblet cells by polycationic peptides” (priority 1999, published 2001).

For data set [1], the system named is HTSE cells. The data set is described as follows: LDH release cytotoxicity assay in HTSE cells. It is filed as cell-based, Golden Syrian hamsters. The settings on record: for LDH release: 10^-5 M, 30 min treatment; for LDH release / cytotoxicity as determined by LDH release: HTSE cells; for LDH release across concentration groups: varying concentrations, 30 min, HTSE cells (FIG. 2); for cytotoxicity as determined by LDH release: techniques of examples 1-4. The method, then:
(§1) The effects of PLA or PLL on cell toxicity were also examined. The possible cytotoxicity of these polypeptides was assessed by four different methods: (a) LDH release, (b) ^51Cr release, (c) cell exfoliation, and (d) light microscopy. Cultures were treated with either PLA or PLL for 30 min, and then assayed as follows. An LDH assay was conducted using an LDH assay kit (LD-L10) (Sigma Chemical Co., St. Louis, Mo.), according to the manufacturer's directions. A 51Cr release assay was carried out as described in Kim et al., 1987, Proc. Natl. Acad. Sci. USA 84:9304-9308. The degree of exfoliation was measured by counting the floating cells at the end of the 24 hr post-treatment period. Floating cells were collected as a pellet from spent media by centrifugation at 200×g for 5 min at 4° C. The resulting cell pellet was suspended in a solution containing 0.05% Trypsin and 0.02% EDTA, and the suspension was incubated at 37° C. for 10 min before dissociated cells were counted using a hemacytometer.
In general terms: LDH in the medium is a marker of cell lysis.

Data set [2] deals with HTSE cells. Kind of data set: ATP-induced mucin release in HTSE cells. To be noted: 10^-5 M peptide with 2×10^-4 M ATP, 30 min chase. It is filed as cell-based, Golden Syrian hamsters. The method, then: The effects of poly-L-arginine (PLA) and poly-L-lysine (PLL) on mucin release from cultured airway goblet cells were evaluated. Tracheas obtained from 7-8 week old male Golden Syrian hamsters (Harlan Sprague Dawley, Indianapolis, Ind.) were used to establish a hamster tracheal surface epithelial, (HTSE) cell culture. HTSE cells were harvested and cultured on a thick collagen gel as described in Kim et al., 1989, Exp. Lung Res. 15: 299-314. Mucins were metabolically radiolabeled by incubating confluent cultures (24 well plate, 5×10^5 cells/well) with 0.2 ml/well of a “complete” medium containing 10 μCi/ml of ^3H-glucosamine for 24 hours as described in Kim et al., 1989, Am. J. Resp. Cell Mol. Biol. 1: 137-143. The “complete” medium was prepared by supplementing a mixture of Medium 199/Dulbecco's modified Eagle's medium (DME) (1:1) with insulin (5 μg/ml), transferrin (5 μg/ml), epidermal growth factor (12.5 ng/ml), 0.1 μM hydrocortisone, 0.01 μM sodium selenite, 0.1 μM retinoic acid, and 5% fetal bovine serum (Hyclone, Logan, Utah). […] Mucins were measured by column chromatography as described in Kim et al, 1987, Proc. Natl. Acad. Sci. USA 84:9304-9308. […]

Data set [3] deals with HTSE cells. Kind of data set: Cell exfoliation (floating cell count) in HTSE cultures. In kind it is cell-based, Golden Syrian hamsters. The settings on record: 10^-5 M; 24 hr post-treatment period; control 1992±132. How it is done: as §1
Data set [4] relates to HTSE cells. The data set is described as follows: Light microscopy of treated HTSE cells. It is filed as cell-based, Golden Syrian hamsters. To be noted: end of 30 min treatment or end of 24 hr post-treatment period. The method, then:
as §1

For data set [5], the system named is HTSE cells. The data set is described as follows: 51Cr release assay in HTSE cells. It is filed as cell-based, Golden Syrian hamsters. To be noted: 10^-5 M, 30 min; control 100±4%. The method, then: as §1
Data set [6] concerns hamster tracheal surface epithelial (HTSE) cells. Kind of data set: Mucin release from cultured airway goblet cells (3H-glucosamine-labelled HTSE cell culture). In kind it is cell-based, Golden Syrian hamsters. The settings on record: for inhibitory effect on mucin release after LMWH pretreatment: 10^-5 M peptide, pretreatment with 2×10^-5 M LMWH for 5 min; for "inhibition" of released mucins / effect on mucin release, column-purified versus not column purified: 10^-5 M; for "inhibition" of released mucins / effect on mucin release/secretion (dose dependence): 30 min chase, HTSE cells; for effect on mucin release, column-purified versus not column purified: unacetylated peptide; for effect on mucin release/secretion (dose dependence): varying concentrations. How it is done:
The effects of poly-L-arginine (PLA) and poly-L-lysine (PLL) on mucin release from cultured airway goblet cells were evaluated. Tracheas obtained from 7-8 week old male Golden Syrian hamsters (Harlan Sprague Dawley, Indianapolis, Ind.) were used to establish a hamster tracheal surface epithelial, (HTSE) cell culture. HTSE cells were harvested and cultured on a thick collagen gel as described in Kim et al., 1989, Exp. Lung Res. 15: 299-314. Mucins were metabolically radiolabeled by incubating confluent cultures (24 well plate, 5×10^5 cells/well) with 0.2 ml/well of a “complete” medium containing 10 μCi/ml of ^3H-glucosamine for 24 hours as described in Kim et al., 1989, Am. J. Resp. Cell Mol. Biol. 1: 137-143. The “complete” medium was prepared by supplementing a mixture of Medium 199/Dulbecco's modified Eagle's medium (DME) (1:1) with insulin (5 μg/ml), transferrin (5 μg/ml), epidermal growth factor (12.5 ng/ml), 0.1 μM hydrocortisone, 0.01 μM sodium selenite, 0.1 μM retinoic acid, and 5% fetal bovine serum (Hyclone, Logan, Utah). At the end of the 24 hour incubation period, the spent media (the pretreatment sample) were collected, and the labeled cultures were washed twice with Dulbecco's PBS without Ca^++ and Mg^++ and then chased for 30 min in the presence of varying concentrations of poly-L-arginine (PLA, average MW 8,900) or poly-L-lysine (PLL, average MW 9,600). The chased media are referred to as the treatment samples. PLA and PLL were prepared in phosphate buffered saline (PBS), and the final pH's of these solutions were adjusted to be between 7.0 and 7.4. […] J. Resp. Cell Mol. Biol. 1: 137-143. At the end of the chase period, floating cells and cell debris were removed from the treatment samples by centrifigation at 12,000×g for 5 min. Fifty μl of the treatment samples were used for lactate dehydrogenase (LDH) assay (as discussed in Example 2 below) and the remaining samples were stored at −80° C. until assayed for their ^3H-mucin contents. High molecular weight glycoconjugates that were excluded after Sepharose CL-4B (Phainacia, Upsaala, Sweden) gel-filtration column chromatography and that were resistant to hyaluronidase, were defined as mucins, as described in Kim et al., 1985, J. Biol. Chem. 260:4021:4027. Mucins were measured by column chromatography as described in Kim et al, 1987, Proc. Natl. Acad. Sci. USA 84:9304-9308.

Data set [7] deals with SO2-induced goblet cell metaplasia. Kind of data set: SO2-induced goblet cell metaplasia in rats (inhaled peptide, PAS staining). To be noted: rat, inhaled 100 μl of 50, 500 or 5,000 μM once a day for five days, 150 ppm SO2. In kind it is in vivo, Sprague-Dawley rats. How it is done:
To examine the effects of PLL or PLA in vivo, the effect of PLL or PLA on goblet cell metaplasia in rats was determined. Exposure of rats to SO2 was carried out essentially according to the method described in Kase et al, 1982, Arzneim-Forsch Drug Research 32:368-373. Eight to ten week-old male Sprague-Dawley rats were placed in a polyacrylic chamber (100 cm×60 cm×25 cm) and exposed to SO2 for three weeks, three hours per day, five days per week. The SO2 gas was generated from a solution containing 10% (W/V) sodium metabisulfite by aerosolization using an ultrasonic humidifier (Samsung Electronic Co., Korea). Concentrations of the generated SO2 gas were monitored before and after the exposure using a SO2 detector kit (Gastec Co., Japan), which has a detection range from 20 to 3600 ppm of SO2. The concentration of the SO2 gas inside the chamber was maintained at 150 ppm during all of the exposure periods.
PLA (average MW 10,800) was prepared in phosphate buffered saline (PBS), pH 7.2, in various concentrations. Following treatment of the animals with SO2 for 2 weeks, animals were treated with both S and PLA during a third week. A 100 μl aliquot of one of the PLA solutions was administered to each rat using an inhaler (PAPI master, Stamberg, Germany), once a day for five consecutive days, during the period immediately following the two week SO2 treatment period. […]

As to poly-L-arginine [PLA], in data set [1], the LDH release entry is reported as “no significant increases” and the “LDH release across concentration groups” value is listed as “no significant difference”. Moreover, the “stimulatory effect of ATP on mucin release” value in data set [2] is given as “completely blocked”. Besides, in data set [3], the “number of floating cells/well” value was found to be 2154±84 cells/well. Besides, the “microscopic difference between control and treated cells” value in data set [4] is recorded as “no apparent microscopic difference”. The same substance came in with a 51Cr release in data set [5] of 102±11%. In data set [6], the “inhibitory effect on mucin release after LMWH pretreatment” value was “completely blocked”; the “"inhibition" of released mucins” value is 85%; the “effect on mucin release, column-purified versus not column purified” value is listed as “no significant difference”; the “effect on mucin release/secretion (dose dependence)” value (“effect on mucin release/secretion” below) was “dose-dependent decrease”.
Regarding “poly-L-arginine [Low molecular weight PLA (14 residues)]”, in data set [1], the “cytotoxicity as determined by LDH release” value (shortened to “cytotoxicity as determined”) is recorded as “without any evidence of cytotoxicity”. Moreover, the “effect on mucin release/secretion” value in data set [6] is recorded as “inhibited mucin secretion in a dose dependent fashion”.
On to “poly-L-lysine [Low molecular weight PLL (14 residues)]”, for which the “cytotoxicity as determined” value in data set [1] was “without any evidence of cytotoxicity”. Also, the “effect on mucin release/secretion” value in data set [6] is recorded as “inhibited mucin secretion in a dose dependent fashion”.
“poly-L-arginine [PLA (average MW 10,800)]”: the “goblet cell metaplasia induced by SO2” value in data set [7] is recorded as “prevented by PLA in a dose-dependent fashion”.
“poly-L-lysine [Low molecular weight PLL (20 residues)]”: the “cytotoxicity as determined” value in data set [1] is reported as “without any evidence of cytotoxicity”. For the same substance, the “effect on mucin release/secretion” value in data set [6] is recorded as “inhibited mucin secretion in a dose dependent fashion”.
As to poly-L-arginine [PLA (5 residues)], the “effect on mucin release/secretion” value in data set [6] is “did not show any significant inhibition”.
Regarding “poly-L-lysine [High molecular weight PLL]”, in data set [1], the “cytotoxicity as determined” value is on record as “associated with cytotoxicity”. Also, the “effect on mucin release/secretion” value in data set [6] is given as “inhibited mucin secretion in a dose-dependent fashion”.
Turning to poly-L-lysine [PLL], in data set [1], the LDH release entry is recorded as “no significant increases” and the “LDH release across concentration groups” value is reported as “no significant difference”. Also, the “stimulatory effect of ATP on mucin release” value in data set [2] is recorded as “completely blocked”. In data set [3], the “number of floating cells/well” value stood at 1920±70 cells/well. In data set [4], the “microscopic difference between control and treated cells” value is recorded as “no apparent microscopic difference”. Also, the 51Cr release in data set [5] amounted to 103±10%. Besides, in data set [6], the “inhibitory effect on mucin release after LMWH pretreatment” value is “completely blocked”; the “"inhibition" of released mucins” value was 87%; the “effect on mucin release, column-purified versus not column purified” value was “no significant difference”; the “effect on mucin release/secretion” value is “dose-dependent decrease”.
For “poly-L-arginine [High molecular weight PLA]”, the “cytotoxicity as determined” value in data set [1] was “associated with cytotoxicity”. Further, in data set [6], the “effect on mucin release/secretion” value was “inhibited mucin secretion in a dose-dependent fashion”.
For “poly-L-arginine [Low molecular weight PLA (20 residues)]” the same measures were “without any evidence of cytotoxicity” and “inhibited mucin secretion in a dose dependent fashion”.
For the substance “poly-L-lysine [Low molecular weight PLL (5 residues)]”, the “effect on mucin release/secretion” value in data set [6] was “did not show any significant inhibition”.
